Measured values published in patent US20250388551A1, “COMPOUNDS INDUCING PRODUCTION OF PROTEINS BY IMMUNE CELLS” (UNIVERSITE PARIS CITE, priority 2022, published 2025).

Assays:
human B cells = experiment: IL-10 induction in human B cells cultivated with anti-IgM plus CpG; type: cell-based; settings: B-cell, 48 h, 2 days, IL-10 in cell culture supernatants, read-out: IL-10 mean induction fold in human B cells treated with compound compared to DMSO control
Protocol: Human B cells isolated magnetically through negative selection (B Cell Isolation Kit II, human, Miltenyi ref: 130-091-151) were cultivated for 2 consecutive days in the presence of anti-IgM plus CpG in the presence of the indicated molecule (see table 1) at 0.25 μM final concentration, or DMSO as control. IL-10 was measured in cell culture supernatants, and the IL-10 induction fold was calculated for each molecule compared to the DMSO control.
Human B cells isolated magnetically through negative selection (B Cell Isolation Kit II, human, Miltenyi ref: 130-091-151) were cultivated for 2 consecutive days in the presence of anti-IgM plus CpG in the presence of DMSO (as control) or in the presence of the tested molecule at 0.25 μM final concentration. IL-10 was measured in cell culture supernatants. NS: non stimulated B cell culture condition.

[1] = system: mouse B cell subsets (CD19+, follicular, marginal zone, blood B cells); experiment: IL-10 expression, IL-10 secretion and plasma cell generation in B cell subsets, CpG-based culture; settings: 0.25 μM, 3 days
Source text: Resting mouse B cells were isolated from spleen by magnetic depletion of CD43^+ cells and total CD19^+ B cells, follicular B cells (CD19^+/CD21^low/−/CD23^high/CD1d^low) and marginal zone B cells (CD19^+/CD21^high/CD23^low/−/CD1d^hi) were purified by FACS. Total CD19^+ blood B cells were directly purified by FACS after red blood cell lysis. […] Generation of B220^low/CD138^high plasma cells was also quantified by flow cytometry. Data are presented as mean±SD. n≥3 independent experiments.

resting mouse B cells [2] = experiment: Il10 mRNA expression in B cells (quantitative RT-PCR); type: cell-based; settings: 0.25 μM
Protocol: Resting mouse B cells were isolated from spleen by magnetic depletion of CD43^+ cells. B cells were incubated with DMSO-vehicle control or N6 (0.25 μM), as such, or in combination with CpG. mRNA was extracted at different time-points and il10/actin ratio was determined.
Resting mouse B cells were isolated from spleen by magnetic depletion of CD43^+ cells. B cells were incubated with DMSO vehicle control, or C3 or N6 at 0.25 μM for the indicated time, and Il10 mRNA induction was quantified by quantitative RT-PCR.

[3] = system: resting mouse B cells from spleen of IL-10.eGFP mice; experiment: High throughput flow cytometry-based phenotypic screen for IL-10 inducers; type: cell-based; settings: 10 μM, LPS, 72 hours
Protocol: Resting mouse B cells were isolated from spleen of IL-10.eGFP mice by magnetic depletion of CD43+ cells, and stimulated for 72 hours in 384-well plates in the presence of chemical compounds at 10 μM final. The chemical library originated from the Leibniz-Forschungsinstitut für Molekulare Pharmakologie (FMP) (Berlin, Germany). The frequency of IL-10-expressing B cells was then measured in each well by flow cytometry.

resting mouse B cells [4] = experiment: IL-10 expression in TLR-, CD40- and BCR-stimulated B cells by flow cytometry; type: cell-based; settings: 0.25 μM, stimulation through TLR4, TLR7/8, TLR9, CD40, IgM, 72 hours
Protocol: Resting mouse B cells were isolated from spleen by magnetic depletion of CD43^+ cells and stimulated through TLR4, TLR7/8, TLR9, CD40, and IgM as indicated for 3 consecutive days. Cell culture medium was supplemented with DMSO-vehicle control, C3 or N6 at 0.25 μM. B cells from C57BL/6 mice were used to determine autofluorescence in eGFP channel and IL-10.eGFP-IL-6.tdTomato mice were used to monitor IL-10 expression by flow cytometry at 72 hours. The percentage of viable/singlets/CD19^+/IL-10^+ cells is shown. Data are presented as mean±SD. n≥3 independent experiments.

SMILES	fold induction at 0.25 µM (human B cells)	also measured
O=C(Nc1ccc2[nH]c(-c3cccnc3)nc2c1)c1ccccc1 [Compound 107, N-[2-(3-Pyridinyl)-1H-benzimidazol-6-yl]benzamide]	1.33	–
COc1ccccc1NC(=O)c1ccc2nc(-c3ccccc3F)[nH]c2c1 [Compound 371, 2-(2-fluorophenyl)-N-(2-methoxyphenyl)-1H-benzo[d]imidazole-6-carboxamide]	1.84	–
O=C(Nc1ccc2c(c1)nc1c3ccccc3c(-c3ccc(Cl)cc3)nn21)c1ccccc1 [Compound 43, N-[5-(4-Chloro-phenyl)benzimidazo[2,1-a]phthalazin-10-yl]benzamide]	1.3	–
O=C(Nc1ccc2nc(-c3cccc(F)c3)[nH]c2c1)c1ccccc1 [Compound 117, N-(2-(3-fluorophenyl)-1H-benzo[d]imidazol-6-yl)benzamide]	1.93	–
O=C(Nc1ccc2[nH]c(-c3ccccc3)nc2c1)c1ccccc1 [Compound N4, N-(2-Phenyl-1H-benzimidazol-6-yl)benzamide]	1.61	–
O=C(Nc1ccc2[nH]c(-c3ccc(F)cc3)nc2c1)c1cc(F)cc2nccnc12 [Compound 54, 7-Fluoro-N-[2-(4-fluorophenyl)-1H-benzimidazol-6-yl]-5-quinoxalinecarboxamide]	1.71	–
COc1ccccc1NC(=O)c1ccc2nc(-c3cccnc3)[nH]c2c1 [Compound 375, N-(2-methoxyphenyl)-2-(pyridin-3-yl)-1H-benzo[d]imidazole-6-carboxamide]	1.6	–
COc1ccccc1C(=O)Nc1ccc2nc(-c3cccc(F)c3)[nH]c2c1 [Compound 153, N-(2-(3-fluorophenyl)-1H-benzo[d]imidazol-6-yl)-2-methoxybenzamide]	1.38	–
O=C(Nc1ccc(-c2nc3ccc(NC(=O)c4ccc(/N=C/c5ccccc5O)cc4)c(Cl)c3[nH]2)cc1)c1ccc(/N=C/c2ccccc2O)cc1 [Compound 22, N-[4-(7-chloro-6-{[(4-{[(E)-(2-hydroxyphenyl)methylidene]amino}phenyl)carbonyl]amino}-1H-benzimidazol-2-yl)phenyl]-4-{[(E)-(2-hydroxyphenyl)methylidene]amino} benzamide]	1.34	–
COc1ccccc1NC(=O)c1ccc2nc(-c3ccccc3)[nH]c2c1 [Compound 366, N-(2-methoxyphenyl)-2-phenyl-1H-benzo[d]imidazole-6-carboxamide]	1.95	–
O=C(Nc1ccc2[nH]c(-c3ccccc3Cl)nc2c1)c1ccccc1N1CCOCC1 [Compound 61, N-[2-(2-Chlorophenyl)-1H-benzimidazol-6-yl]-2-(4-morpholinyl)benzamide]	2.18	–
O=C(Nc1ccc2[nH]c(-c3cc(F)ccc3F)nc2c1)c1cc(F)cc2nccnc12 [Compound 56, N-[2-(2,5-Difluorophenyl)-1H-benzimidazol-6-yl]-7-fluoro-5-quinoxalinecarboxamide]	1.76	–
COc1ccccc1C(=O)Nc1ccc2c(c1)nc1c3ccccc3c(C)nn21 [Compound 40, 2-Methoxy-N-(5-methylbenzimidazo[2,1-a]phthalazin-10-yl)benzamide]	1.72	–
COc1ccccc1C(=O)Nc1ccc2nc(-c3ccc(F)cc3)[nH]c2c1 [Compound 145, N-(2-(4-fluorophenyl)-1H-benzo[d]imidazol-6-yl)-2-methoxybenzamide]	1.59	–
O=C1CCSc2ccc(C(=O)Nc3ccc4[nH]c(-c5cccc(F)c5)nc4c3)cc2N1 [Compound 58, N-[2-(3-fluorophenyl)-1H-benzimidazol-5-yl]-4-oxo-3,5-dihydro-2H-1,5-benzothiazepine-7-carboxamide]	1.56	–
O=C(Nc1ccc2[nH]c(-c3cccc(F)c3)nc2c1)c1ccc(-n2cc[nH]c2=S)cc1 [Compound 57, N-[2-(3-fluorophenyl)-1H-benzimidazol-5-yl]-4-(2-sulfanylidene-3H-imidazol-1-yl)benzamide]	1.33	–

SMILES	fold induction at 0.25 µM (human B cells)	also measured
COc1cccc(F)c1C(=O)Nc1ccc2[nH]c(-c3ccc(F)cc3)nc2c1 [Compound 1, 2-Fluoro-N-[2-(4-fluorophenyl)-1H-benzimidazol-6-yl]-6-methoxybenzamide]	1.91	–
O=C(Nc1ccc2nc(-c3ccc(F)cc3)[nH]c2c1)c1ccccc1 [Compound 116, N-[2-(4-Fluorophenyl)-1H-benzimidazol-6-yl]benzamide]	1.48	–
Nc1ccc(C(=O)Nc2ccc(-c3nc4cc(NC(=O)c5ccc(N)cc5)c(Cl)cc4[nH]3)cc2)cc1 [Compound 67, 4-Amino-N-[4-[5-[(4-aminobenzoyl)amino]-6-chloro-1H-benzimidazol-2-yl]phenyl]benzamide]	1.84	–
COc1ccccc1C(=O)Nc1ccc2c(c1)nc1c3ccccc3c(-c3ccc(C)cc3)nn21 [Compound 32, 2-Methoxy-N-[5-(4-methylphenyl)benzimidazo [2,1-a]phthalazin-10-yl]benzamide]	1.42	–
Cc1ccc(-c2nn3c4ccc(NC(=O)c5ccccc5I)cc4nc3c3ccccc23)cc1 [Compound 30, 2-lodo-N-[5-(4-methyl-phenyl)benzimidazo[2,1-a]phthalazin-10-yl]benzamide]	1.37	–
CC(=O)Nc1ccc(C(=O)Nc2ccc(-c3nc4cc(NC(=O)c5ccc(NC(C)=O)cc5)ccc4[nH]3)cc2)cc1 [Compound C3]	–	differentiation of B cells into plasma cells (B220low/CD138high) [1]: increase; amount of IL-10 produced by stimulated B cells ([1]; cell-free supernatants): increase; proportion of activated B cells expressing IL-10 ([1]; flow cytometry): increase; Il10 transcription in unstimulated B cells (resting mouse B cells [2]): Increase Il10 Transcription; IL-10 expression in stimulated B cells [3]: markedly increases IL-10 expression; IL-10 expression in B cells (percentage of IL-10+ cells) (resting mouse B cells [4]): increase IL-10 expression in B cells across a broad range of stimulation protocols
CN(C)S(=O)(=O)c1cc(C(=O)Nc2ccc3[nH]c(-c4ccc(F)cc4)nc3c2)ccc1Cl [Compound 4, 4-Chloro-3-[(dimethylamino)sulfonyl]-N-[2-(4-fluorophenyl)-1H-benzimidazol-6-yl]benzamide]	1.49	–
Fc1ccc(-c2nc3cc(Br)ccc3[nH]2)cc1 [Compound 111, 6-Bromo-2-(4-fluorophenyl)-1H-benzimidazole]	1.56	–
Fc1ccccc1-c1nc2ccc(Br)cc2[nH]1 [Compound 136, 6-bromo-2-(2-fluorophenyl)-1H-Benzimidazole]	2.88	–
COc1ccccc1C(=O)Nc1ccc2nc(-c3ccccc3F)[nH]c2c1 [Compound 157, N-(2-(2-fluorophenyl)-1H-benzo[d]imidazol-6-yl)-2-methoxybenzamide]	1.61	–
CSc1ccccc1C(=O)Nc1ccc2[nH]c(-c3cccc(F)c3)nc2c1 [Compound 52, N-[2-(3-Fluorophenyl)-1H-benzimidazol-6-yl]-2-(methylthio)benzamide]	1.91	–
COc1ccccc1C(=O)Nc1ccc2nc(-c3cccnc3)[nH]c2c1 [Compound 124, 2-Methoxy-N-[2-(3-pyridinyl)-1H-benzimidazol-6-yl]benzamide]	3.5	–
Cc1ccc(-c2nn3c4ccc(NC(=O)c5ccccc5)cc4nc3c3ccccc23)cc1 [Compound 31, N-[5-(4-Methylphenyl)benzimidazo [2,1-a]phthalazin-10-yl]benzamide]	1.72	–
O=C(Nc1ccc2nc(-c3ccccc3F)[nH]c2c1)c1ccccc1 [Compound 120, N-(2-(2-fluorophenyl)-1H-benzo[d]imidazol-6-yl)benzamide]	1.68	–
Fc1cccc(-c2nc3cc(Br)ccc3[nH]2)c1 [Compound 110, 6-Bromo-2-(3-fluorophenyl)-1H-benzimidazole]	1.43	–
